From ChEMBL document CHEMBL4622879, “Structural Revision of Garcinielliptin Oxide and Garcinielliptone E” (J Nat Prod, 2020) come the findings set out here.

One experiment has as its target Acetylcholinesterase (Homo sapiens, UniProt P22303). Put plainly: Inhibition of human erythrocyte acetylcholinesterase using acetylthiocholine as substrate preincubated for 20 mins followed by substrate addition and measured after 30 mins by Ellman's method.
The subject of a further experiment is RAW264.7. In words: Antiinflammatory activity in mouse RAW264.7 assessed as reduction in LPS-induced NO production. The experiment is classed as functional, cell-based.
The next experiment concerns K562. Put plainly: Cytotoxicity against human K562 cells at 40 uM after 1 to 11 days by tetrazolium reagent based assay. The experiment is classed as functional, cell-based.
The next experiment concerns HCT-116. In words: Cytotoxicity against human HCT116 cells at 40 uM after 1 to 11 days by tetrazolium reagent based assay. The experiment is classed as functional, cell-based.
For the next experiment, the system named is MDA-MB-231. In words: Cytotoxicity against human MDA-MB-231 cells at 40 uM after 1 to 11 days by tetrazolium reagent based assay. The class given is functional, cell-based.
The next experiment concerns A549. In words: Cytotoxicity against human A549 cells at 40 uM after 1 to 11 days by tetrazolium reagent based assay. The class given is functional, cell-based.
Another experiment relates to HepG2. Put plainly: Cytotoxicity against human HepG2 cells at 40 uM after 1 to 11 days by tetrazolium reagent based assay. The class given is functional, cell-based.

SMILES strings stand for the structures. Active and inactive are the calls of the source. The calls are words filed in the database; no cut-off is given here.

Sequence of Acetylcholinesterase (P22303 whole entry): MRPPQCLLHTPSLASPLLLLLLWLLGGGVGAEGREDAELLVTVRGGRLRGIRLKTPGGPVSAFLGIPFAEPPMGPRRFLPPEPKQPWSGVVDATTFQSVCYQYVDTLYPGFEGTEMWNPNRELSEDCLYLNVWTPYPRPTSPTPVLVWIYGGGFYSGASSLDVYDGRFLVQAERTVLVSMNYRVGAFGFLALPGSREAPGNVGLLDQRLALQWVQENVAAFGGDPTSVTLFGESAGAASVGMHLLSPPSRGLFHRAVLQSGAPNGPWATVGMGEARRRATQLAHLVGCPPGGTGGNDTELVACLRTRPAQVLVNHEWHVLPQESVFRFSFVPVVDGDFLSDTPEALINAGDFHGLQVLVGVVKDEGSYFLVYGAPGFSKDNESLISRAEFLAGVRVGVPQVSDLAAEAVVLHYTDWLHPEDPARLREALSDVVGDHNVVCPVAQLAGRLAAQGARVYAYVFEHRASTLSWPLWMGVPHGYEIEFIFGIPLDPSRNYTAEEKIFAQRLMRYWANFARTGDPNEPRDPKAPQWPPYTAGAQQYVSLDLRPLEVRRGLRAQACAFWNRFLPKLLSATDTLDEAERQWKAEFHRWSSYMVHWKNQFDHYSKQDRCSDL

The IC50 is the concentration that inhibits the measured activity by half. The low end stands for inhibition by little substance, the high end for a need for much substance. Take `CC(C)=CC[C@H]1C[C@]2(CC=C(C)C)C(=O)[C@]3(CC=C(C)C)O[C@@]1(C(=O)C(C)C)[C@@]2(O)C(C)(C)C3=O`: the IC50 against Acetylcholinesterase was found to be 20.7 µM. Also, the result with RAW264.7, with K562, in the experiment on HCT-116, in the experiment with MDA-MB-231, with A549 and in the experiment on HepG2 was inactive.

As for `CCC(C)C(=O)[C@]12C(=O)[C@]3(CC=C(C)C)OC1(O)[C@](CC=C(C)C)(C[C@H](CC=C(C)C)C2(C)C)C3=O` (stereo partly drawn), the result with RAW264.7, with K562, in the experiment with HCT-116, in the experiment on MDA-MB-231, with A549 and in the experiment on HepG2 was inactive.
